According to patent US7964624B1, “Inhibitors of serine proteases” (priority 2005, dated 2011):

Target: T1, HCV NS3 protease domain (Hepatitis C virus genotype 1b, UniProt Q9WMX2)
T1 construct: The first 181 amino acids of NS3 (residues 1027-1207 of the viral polyprotein); hexa-histidine (C); made in house; host or cells: E. coli BL21/DE3 pLysS
Assay: biochemical
Settings: Enzyme Assay 1 (HCV NS3 Protease Domain Peptide Cleavage Assay) activity, apparent Ki class

T1 sequence (Q9WMX2 1027-1207, other chains not shown): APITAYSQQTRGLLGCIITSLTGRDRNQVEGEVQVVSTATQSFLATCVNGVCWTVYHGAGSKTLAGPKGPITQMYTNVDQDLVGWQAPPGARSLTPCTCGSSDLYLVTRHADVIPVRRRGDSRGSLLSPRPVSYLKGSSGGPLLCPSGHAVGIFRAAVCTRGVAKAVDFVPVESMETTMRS

| SMILES | Ki [nM] |
| --- | --- |
| CCC[C@H](NC(=O)[C@@H]1C[C@]2(CC(c3ccc(F)c(C)c3)=NO2)CN1C(=O)[C@@H](NC(=O)CC1CCOCC1)C(C)(C)C)C(=O)C(=O)NC1CC1 [Compound 539] | 100 to 500 |
| CCC[C@H](NC(=O)[C@@H]1C[C@]2(CC(c3cccc(Cl)c3)=NO2)CN1C(=O)[C@@H](NC(=O)OCc1cccnc1)C(C)(C)C)C(=O)C(=O)NC1CC1 [Compound 563] | 100 to 500 |
| CCC[C@H](NC(=O)[C@@H]1C[C@]2(CC(c3cccc(Cl)c3)=NO2)CN1C(=O)[C@@H](NC(=O)CC1=C(c2cccs2)CCC1=O)C(C)(C)C)C(=O)C(=O)NC1CC1 [Compound 402] | 100 to 500 |
| CCC[C@H](NC(=O)[C@@H]1C[C@]2(CC(c3ccccc3)=NO2)CN1C(=O)OCC1c2ccccc2-c2ccccc21)C(=O)C(=O)NC1CC1 [Compound 514] | > 500 |
| CCC[C@H](NC(=O)[C@@H]1C[C@]2(CC(CC)=NO2)CN1C(=O)[C@@H](NC(=O)[C@@H](NC(=O)c1cnccn1)C1CCCCC1)C(C)(C)C)C(=O)C(=O)NC1CC1 [Compound 547] | < 100 |
| C=C[C@@H]1C[C@]1(NC(=O)[C@@H]1C[C@]2(CC(c3cccc(Cl)c3)=NO2)CN1C(=O)[C@@H](NC(=O)CC1CCOCC1)C(C)(C)C)C(=O)NS(=O)(=O)C1CC1 [Compound 359] | 100 to 500 |
| CCC[C@H](NC(=O)[C@@H]1C[C@]2(CC(c3cccc(Cl)c3)=NO2)CN1C(=O)CN1C[C@H]2CCCC[C@H]2C[C@H]1C(=O)NC(C)(C)C)C(=O)C(=O)NC1CC1 [Compound 276] | > 500 |
| CCC[C@H](NC(=O)[C@@H]1C[C@]2(CC(c3ccc(OC)cc3OC)=NO2)CN1C(=O)OCC1c2ccccc2-c2ccccc21)C(=O)C(=O)NC1CC1 [Compound 371] | 100 to 500 |
| CCC[C@H](NC(=O)[C@@H]1C[C@]2(CC(c3ccc4c(c3)OCO4)=NO2)CN1C(=O)[C@@H](NC(=O)CC1CCOCC1)C(C)(C)C)C(=O)C(=O)NC1CC1 [Compound 82] | 100 to 500 |
| CCC[C@H](NC(=O)[C@@H]1C[C@]2(CC(c3cccc(Cl)c3)=NO2)CN1C(=O)[C@@H](Nc1ncc(C)cc1[N+](=O)[O-])C(C)(C)C)C(=O)C(=O)NC1CC1 [Compound 345] | > 500 |
| CCC[C@H](NC(=O)[C@@H]1C[C@]2(CC(c3ccco3)=NO2)CN1C(=O)[C@@H](NC(=O)OC1CCOC1)C(C)(C)C)C(=O)C(=O)NC1CC1 (some centres unmarked) [Compound 472] | > 500 |
| CCC[C@H](NC(=O)[C@@H]1C[C@]2(CC(c3ccc(F)c(C(F)(F)F)c3)=NO2)CN1C(=O)O[C@H]1CCOC1)C(=O)C(=O)NC1CC1 [Compound 451] | > 500 |
| CCC[C@H](NC(=O)[C@@H]1C[C@]2(CC(c3cccc(Cl)c3)=NO2)CN1C(=O)[C@@H](NC(=O)Nc1ccc(N2C(=O)C=CC2=O)cc1)C(C)(C)C)C(=O)C(=O)NC1CC1 [Compound 128] | 100 to 500 |
| CCC[C@H](NC(=O)[C@@H]1C[C@]2(CC(c3cccc(Cl)c3)=NO2)CN1C(=O)[C@@H](NC(=O)NCc1ccccc1)C(C)(C)C)C(=O)C(=O)NC1CC1 [Compound 583] | 100 to 500 |
| CCC[C@H](NC(=O)[C@@H]1C[C@]2(CC(C(=O)NCc3ccccc3)=NO2)CN1C(=O)[C@@H](NC(=O)O[C@H]1CCOC1)C(C)(C)C)C(=O)C(=O)NC1CC1 [Compound 341] | > 500 |
| CCC[C@H](NC(=O)[C@@H]1C[C@]2(CC(c3cccc(Cl)c3)=NO2)CN1C(=O)[C@@H](NC(=O)NCC(N)=O)C(C)(C)C)C(=O)C(=O)NC1CC1 [Compound 94] | < 100 |
| CC(C)(C)NC(=O)N[C@H](C(=O)N1C[C@@]2(CC(c3cccc(Cl)c3)=NO2)C[C@H]1C(=O)NC(CC1CCC1)C(=O)C(N)=O)C(C)(C)C (some centres unmarked) [Compound 247] | < 100 |
| CCC[C@H](NC(=O)[C@@H]1C[C@]2(CC(c3ccc(Br)o3)=NO2)CN1C(=O)[C@@H](NC(=O)CC1CCCCC1)C(C)(C)C)C(=O)C(=O)NC1CC1 [Compound 179] | 100 to 500 |

| SMILES | Ki [nM] |
| --- | --- |
| CCC[C@H](NC(=O)[C@@H]1C[C@]2(CC(c3cccc(Cl)c3)=NO2)CN1C(=O)[C@@H](NC(=O)C(C)(C#N)Cc1ccccc1)C(C)(C)C)C(=O)C(=O)NC1CC1 (some centres unmarked) [Compound 538] | > 500 |
| CCC[C@H](NC(=O)[C@@H]1C[C@]2(CC(c3ccccc3)=NO2)CN1C(=O)NCc1cc(OC)c(OC)c(OC)c1)C(=O)C(=O)NC1CC1 [Compound 367] | > 500 |
| CCC[C@H](NC(=O)[C@@H]1C[C@]2(CC(c3cccc(Cl)c3)=NO2)CN1C(=O)[C@@H](NC(=O)Cn1ccc2ncccc21)C(C)(C)C)C(=O)C(=O)NC1CC1 [Compound 506] | > 500 |
| CCC[C@H](NC(=O)[C@@H]1C[C@]2(CC(c3cccc(Cl)c3)=NO2)CN1C(=O)[C@@H](NC(=O)CC(C)(C)O)C(C)(C)C)C(=O)C(=O)NC1CC1 [Compound 392] | 100 to 500 |
| CCC[C@H](NC(=O)[C@@H]1C[C@]2(CC(c3cccc(Cl)c3)=NO2)CN1C(=O)[C@@H](NC(=O)Cc1ccccc1C)C(C)(C)C)C(=O)C(=O)NC1CC1 [Compound 431] | 100 to 500 |
| CCC[C@H](NC(=O)[C@@H]1C[C@]2(CC(c3cccc(Cl)c3)=NO2)CN1C(=O)[C@@H](NC(=O)Oc1ccc2c(c1)OCO2)C(C)(C)C)C(=O)C(=O)NC1CC1 [Compound 197] | 100 to 500 |
| CCC[C@H](NC(=O)[C@@H]1C[C@]2(CC(c3ccccc3)=NO2)CN1C(=O)[C@@H](NC(=O)Cc1cccnc1)C(C)(C)C)C(=O)C(=O)NC1CC1 [Compound 283] | > 500 |
| CCC[C@H](NC(=O)[C@@H]1C[C@]2(CC(c3c(C)oc4ccccc34)=NO2)CN1C(=O)[C@@H](NC(=O)CC1CCCCC1)C(C)(C)C)C(=O)C(=O)NC1CC1 [Compound 230] | 100 to 500 |
| CCC[C@H](NC(=O)[C@@H]1C[C@]2(CC(c3cc(F)cc(Cl)c3)=NO2)CN1C(=O)[C@@H](NC(=O)CC1CCCCC1)C(C)(C)C)C(=O)C(=O)NC1CC1 [Compound 95] | 100 to 500 |
| CCC[C@H](NC(=O)[C@@H]1C[C@]2(CC(c3cccc(Cl)c3)=NO2)CN1C(=O)[C@@H](NC(=O)Nc1ccccc1)C(C)(C)C)C(=O)C(=O)NC1CC1 [Compound 558] | 100 to 500 |
| CCC[C@H](NC(=O)[C@@H]1C[C@]2(CC(c3ccc(C)cc3)=NO2)CN1C(=O)[C@@H](NC(=O)O[C@H]1CCOC1)C(C)(C)C)C(=O)C(=O)NC1CC1 [Compound 385] | > 500 |
| CCC[C@H](NC(=O)[C@@H]1C[C@]2(CC(c3cccc(Cl)c3)=NO2)CN1C(=O)[C@@H](NC(=O)NCc1cc(OC)c(OC)c(OC)c1)C(C)(C)C)C(=O)C(=O)NC1CC1 [Compound 259] | 100 to 500 |
| CCC[C@H](NC(=O)[C@@H]1C[C@]2(CC(c3cccc(Cl)c3)=NO2)CN1C(=O)[C@@H](NC(=O)N(C)CC)C(C)(C)C)C(=O)C(=O)NC1CC1 [Compound 432] | > 500 |
| CCC[C@H](NC(=O)[C@@H]1C[C@]2(CC(c3ccc4c(c3)OCO4)=NO2)CN1C(=O)[C@@H](NS(=O)(=O)c1cccc2ccccc12)C(C)(C)C)C(=O)C(=O)NC1CC1 [Compound 536] | > 500 |
| CCC[C@H](NC(=O)[C@@H]1C[C@]2(CC(c3cccc(Cl)c3)=NO2)CN1C(=O)[C@@H](NC(=O)c1ccnn1-c1ccccc1)C(C)(C)C)C(=O)C(=O)NC1CC1 [Compound 571] | 100 to 500 |
| CCC[C@H](NC(=O)[C@@H]1C[C@]2(CC(c3cccc(OC)c3)=NO2)CN1C(=O)[C@@H](NC(=O)CC1CCOCC1)C(C)(C)C)C(=O)C(=O)NC1CC1 [Compound 525] | > 500 |
| CCC[C@H](NC(=O)C1C[C@]2(CC(c3ccc4c(c3)OCO4)=NO2)CN1C(=O)c1ccc[nH]1)C(=O)C(=O)NC1CC1 (some centres unmarked) [Compound 51] | > 500 |
